{
  "source": "patent US20220347144A1",
  "about": "“COMPOSITIONS AND METHODS FOR PREVENTING AND/OR REDUCING WEIGHT GAIN AND ASSOCIATED CONDITIONS” (University of Virginia Patent Foundation, priority 2019, published 2022)",
  "key": {"C57Bl/6J mice [1]": {"tested_on": "C57Bl/6J mice", "experiment": "Liver ceramide and lipid composition by LC-MS/MS in mice on control or high fat diets with or without nervonic acid", "format": "in vivo, mouse", "procedure": "(§1) Animals. Animal experiments were approved by the Animal Care and Use Committee of the University of Virginia (Charlottesville, Va., United States of America). C57Bl/6J mice were obtained from Jackson Laboratories (Bar Harbor, Me., United States of America). Mice were group housed in standard cages with up to five mice per cage with a 12 hour dark/light cycle. All mice were weighed once per week. Weekly food consumption was measured, with the amount consumed per cage averaged amongst the mice in the cage. Body composition was determined by use of an ECHOMRI™-100H Body Composition Analyzer (EchoMRI LLC, Houston, Tex., United States of America).\n(§2) Diets. Diets were obtained from Research Diets (New Brunswick, N.J., United States of America). The low fat chow was D12450Ji (10 kcal % fat) and the high fat chow was D12492 (60 kcal % fat). These two chows were reformulated by replacing a portion of dietary fat with an ethyl ester of nervonic acid from Nu-Chek Prep (Elysian, Minn., United States of America) to produce isocaloric diets with nervonic acid at 6 g per kg of diet (0.6%). For the three most prevalent fatty acids in these diets: C16 comprised 14.4%, 11.7%, 18.5%, and 18.1%; C18:1 comprised 27.4%, 22.8%, 32%, and 31.4%; and C18:2 comprised 39.6%, 36.2%, 26.9%, and 26.5% of the fatty acid composition of the Cnt, Cnt+NA, HFD, and HFD+NA diets, respectively. Mice were started on diets at ˜8 weeks of age and given ad libitum access.\n(§3) Sphingolipid and acylcarnitine measurements by liquid chromatography-mass spectrometry. Sphingolipids were analyzed as described previously (Wijesinghe et al., 2010) for FIG. 1B or with modifications described herein. Liver samples from rats fed a low or high fat diet were obtained from Scot Kimball's laboratory at the Pennsylvania State University (Hershey, Pa.). Mouse liver samples were analyzed with modifications as described previously (Pearson et al., 2020). For FIGS. 1A and 5D, liver homogenates were subjected to lipid extraction and subjected to liquid chromatography-electrospray ionization mass spectrometry was performed on an I-class Acquity with a 2.1 mm×10 cm C18 CSH […] particle size column coupled to an in-line TQ-S mass spectrometer from Waters Corporation (Milford, Mass., United States of America)."}, "C57Bl/6J mice [2]": {"tested_on": "C57Bl/6J mice", "experiment": "Energy expenditure, respiratory exchange ratio and locomotion in metabolic cages", "format": "in vivo, mouse", "procedure": "For determination of energy expenditure, respiratory exchange ratios, and activity, mice were placed in an Oxymax metabolic chamber systems (Comprehensive Laboratory Animal Monitoring System, CLAMS, from Columbus Instruments (Columbus, Ohio, United States of America). Oxygen consumption (V02) and carbon dioxide production (VCO2) were determined for each mouse every 18 minutes over 72 hours with ambulatory activity assessed every minute over this same time period. Only the last two complete light and dark cycles (spanning 48 hours) were used for data analysis. Feces was collected from these studies and shipped to the Mouse Metabolic Phenotyping Core at the University of Texas Southwestern for bomb calorimetry analysis using a Parr 6200 Isoperibol Calorimeter (Parr Instrument Company, Moline, Ill., United States of America)."}, "HEK293 cells": {"tested_on": "HEK293 cells", "experiment": "CerS2 siRNA knockdown in HEK293 cells with nervonic acid treatment, C24:1 ceramide", "format": "cell-based", "conditions": "1 μM NA for 24 hours", "procedure": "Cell culture. HEK293 cells were grown in DMEM containing 10% FBS. Cells were transfected with Silencer Select siRNA to CerS2 (s26789) or Silencer Select negative control No. 1 using LIPOFECTAMINE® 3000 brand transfection reagent following the manufacturer's protocol. All culture reagents were obtained from Thermo Fisher Scientific (Waltham, Mass., United States of America). 48 hours post-transfection, cells were treated with vehicle or 1 μM nervonic acid for 24 hours.\nas §3"}, "C57Bl/6J mice [3]": {"tested_on": "C57Bl/6J mice", "experiment": "Body composition (EchoMRI)", "format": "in vivo, mouse", "procedure": "as §1, §2"}, "C57Bl/6J mice [4]": {"tested_on": "C57Bl/6J mice", "experiment": "Glucose Tolerance Test (GTT)", "format": "in vivo, mouse", "conditions": "HFD+NA versus HFD, 10 weeks on diets", "procedure": "(§4) Insulin Tolerance Test (ITT) and Glucose Tolerance Test (GTT) and analysis of blood glucose and plasma insulin. ITT and GTT were performed as described in Lansey et al., 2012. Briefly, for ITT, random-fed mice were given an intraperitoneal injection (IP) of insulin (0.75 U/kg in 0.9% NaCl). Blood glucose levels were determined by a glucometer (Contour Next EZ Blood Glucose Monitoring System, Bayer, Leverkusen, Germany) at the indicated time points after injection. For GTT, mice were fasted for 16 hours prior to testing. D-Glucose, prepared the day before, was administered via an IP injection (1 g/kg), and blood glucose levels were determined by a glucometer at the indicated time points after injection. Plasma insulin levels were determined using a STELLUX® brand Chemi Rodent Insulin ELISA kit (Cat. No. 80-INSMR-CHO1; APLCO, Salem, N.H., United States of America) or an Ultrasensitive Rat/Mouse Insulin ELISA kit, Low Range Assay (Cat. No. 90060; Crystal Chem, Downers Grove, Ill., United States of America). The luminescence assay was conducted using a VICTOR2 Plate Reader (Perkin Elmer, Waltham, Mass., United States of America)."}, "C57Bl/6J mice [5]": {"tested_on": "C57Bl/6J mice", "experiment": "Fasting and random-fed blood glucose", "format": "in vivo, mouse", "conditions": "for fasting blood glucose / random-fed blood glucose: HFD+NA versus HFD, 8 weeks on diets", "procedure": "as §4"}},
  "data": [
    {"substance": "(Z)-tetracos-15-enoic acid [NA]", "values": [
      {"measurement": "hepatic C20 and C22-ceramides", "setting": "C57Bl/6J mice [1]; HFD-fed mice, NA-supplemented diet", "result": "back to control levels"},
      {"measurement": "C24:1-lysophosphatidylcholine in liver", "setting": "C57Bl/6J mice [1]; NA-enriched control and HFDs", "result": "elevated"},
      {"measurement": "diacylglyceride C16:0/C24:1 in liver", "setting": "C57Bl/6J mice [1]; NA-enriched control and HFDs", "result": "elevated"},
      {"measurement": "diacylglyceride C18:0/C24:1 in liver", "setting": "C57Bl/6J mice [1]; NA-enriched control and HFDs", "result": "elevated"},
      {"measurement": "diacylglyceride C18:1/C24:1 in liver", "setting": "C57Bl/6J mice [1]; NA-enriched control and HFDs", "result": "elevated"},
      {"measurement": "diacylglyceride C18:2/C24:1 in liver", "setting": "C57Bl/6J mice [1]; NA-enriched control and HFDs", "result": "elevated"},
      {"measurement": "total amounts of ceramides in liver", "setting": "C57Bl/6J mice [1]; between diet groups with and without NA", "result": "consistent between diet groups"},
      {"measurement": "C24:1-hexosylceramide in liver", "setting": "C57Bl/6J mice [1]; both diets, NA 0.6%", "result": "increasing"},
      {"measurement": "C24:1-sphingomyelin in liver", "setting": "C57Bl/6J mice [1]; both diets, NA 0.6%", "result": "increasing"},
      {"measurement": "other ceramides C20-C26 in liver", "setting": "C57Bl/6J mice [1]; normal and HFD fed groups, NA 0.6% by diet weight", "result": "concomitant decreases"},
      {"measurement": "C24:1-ceramides in liver", "setting": "C57Bl/6J mice [1]; normal and HFD fed groups, ethyl ester of NA 0.6% by diet weight", "result": "increases"},
      {"measurement": "ambulatory activity", "setting": "C57Bl/6J mice [2]; HFD+NA versus HFD", "result": "similar"},
      {"measurement": "oxygen consumption (VO2)", "setting": "C57Bl/6J mice [2]; HFD+NA versus HFD, light and dark cycle", "result": "significantly lower"},
      {"measurement": "carbon dioxide production (VCO2)", "setting": "C57Bl/6J mice [2]; HFD+NA versus control and HFD groups", "result": "significant reduction"},
      {"measurement": "ambulatory activity", "setting": "C57Bl/6J mice [2]; control+NA versus control", "result": "similar"},
      {"measurement": "heat production", "setting": "C57Bl/6J mice [2]; control+NA versus control", "result": "No differences"},
      {"measurement": "respiratory exchange ratio (RER)", "setting": "C57Bl/6J mice [2]; control+NA versus control, light and dark cycles", "result": "No statistical changes"},
      {"measurement": "C24:1 ceramide after CerS2 knockdown", "setting": "HEK293 cells", "result": "only partially restored"},
      {"measurement": "average body fat content", "setting": "C57Bl/6J mice [3]; HFD+NA fed animals at the time of sacrifice (HFD: 16.44 g/mouse)", "result": 9.48, "unit": "g/mouse"},
      {"measurement": "fat mass", "setting": "C57Bl/6J mice [3]; HFD+NA versus HFD", "result": "reduction in fat mass"},
      {"measurement": "lean mass", "setting": "C57Bl/6J mice [3]; HFD+NA versus HFD", "result": "slightly, but significantly, reduced"},
      {"measurement": "lean mass", "setting": "C57Bl/6J mice [3]; HFD+NA versus control or control+NA groups", "result": "not significantly different"},
      {"measurement": "water mass", "setting": "C57Bl/6J mice [3]; all experimental groups", "result": "similar"},
      {"measurement": "lean mass", "setting": "C57Bl/6J mice [3]; control+NA versus control", "result": "not significantly different"},
      {"measurement": "glucose tolerance (glucose load, area under the curve)", "setting": "C57Bl/6J mice [4]", "result": "significantly improved glucose tolerance"},
      {"measurement": "glucose tolerance (glucose load, area under the curve)", "setting": "C57Bl/6J mice [4]; listed as nervonic acid", "result": "reduction in the glucose load"},
      {"measurement": "fasting blood glucose", "setting": "C57Bl/6J mice [5]", "result": "significant reductions"},
      {"measurement": "random-fed blood glucose", "setting": "C57Bl/6J mice [5]", "result": "significant reductions"},
      {"measurement": "fasting blood glucose", "setting": "C57Bl/6J mice [5]; listed as nervonic acid", "result": "significant reduction"},
      {"measurement": "random-fed blood glucose", "setting": "C57Bl/6J mice [5]; listed as nervonic acid", "result": "significant reduction"},
      {"measurement": "blood glucose levels", "setting": "C57Bl/6J mice [5]; HFD+NA versus control diet, random fed or fasted", "result": "not significantly different"},
      {"measurement": "blood glucose levels", "setting": "C57Bl/6J mice [5]; control with NA diet versus control", "result": "No significant differences"}
    ]}
  ]
}
